Measurements published in patent publication US20250270170A1, “2,3-DIMETHOXY-5-METHYL-1,4-BENZOQUINONE ALKYL ALCOHOL DERIVATIVE AND USE THEREOF” (BEIJING ANJIANXI BIO-MEDICAL TECHNOLOGY CO., LTD., priority 2021, published 2025).

Experiments:
[1] = Example 9: body weight of A549 tumor-bearing nude mice; format: in vivo
Experimental: On D1 of the assay, the A549 cells in the logarithmic growth phase were collected, counted and resuspended in PBS, and the cell concentration was adjusted to 8×10^7 cells/mL. The cells were pipetted with a pipette to disperse them evenly, and the cells were put into a 50-mL centrifuge tube, which was placed in an ice box. A 1-mL syringe was used to draw the cell suspension, which was injected subcutaneously into the axilla of the front right limb of a nude mouse. Each animal was inoculated with 100 μL (8×10^6 cells/mouse) to establish an A549 transplanted tumor model in nude mice. After the inoculation, the animal status and tumor growth were regularly observed. On D18, the tumor diameter was measured using an electronic vernier caliper. The data were input into an Excel spreadsheet to calculate the tumor volume. Tumor-bearing mice in good health and with similar tumor volumes (101 to 156 mm^3) were selected and divided into groups using randomized block method. After the start of the assay, the tumor diameter was measured regularly, the tumor volume was calculated, and the animal body weight was also weighed and recorded. [table]

[2] = Example 7: body weight of NCI-N87 tumor-bearing nude mice; format: in vivo; settings: DDP 4/2/1/4 mg/kg IP
[3] = test system: A549 cells; test: Colony formation assay, A549; format: cell-based, human; settings: 50 μM and 150 μM vs 0 μM, about 2 weeks
Experimental: (1) The cell status was observed under a microscope. Cells in the logarithmic growth phase were selected and digested to make a cell suspension. 20 μl of the cell suspension was taken with a pipette and added to the CountStar disposable cell counting plate for cell counting, and the counting results were recorded.
(2) A 6-well culture plate was used for colony formation assay. Approximately 1,000 cells were inoculated into each well, and the complete culture medium was added to make up the volume to 2.5 ml per well. The cells were shaked in a figure-8 pattern to disperse the cells evenly. The next day, the compound of formula (I) at different concentrations (0 μM, 50 μM, and 150 μM) were added to the corresponding wells according to the assay plan, and incubated in an incubator at 37° C. with 5% CO2 for about 2 weeks. The culture was terminated when visible colonies appeared.
(3) The culture plate was taken out, and the old culture medium was discarded. The cells were gently washed twice with PBS.
(4) 500 μl of 4% paraformaldehyde fixative was added to each well to fix the cells at room temperature for 15 minutes, and then the fixative was discarded.
(5) 500 μl of 0.1% crystal violet solution was added to each well, and cells were stained at room temperature for at least 15 minutes. The crystal violet was discarded, and the staining solution was slowly washed away with running water. […]

[4] = Solubility of the compound in organic solvents; format: physicochemical; settings: organic solvents (DMSO and isopropyl alcohol 3:7 selected)
Experimental: The containers with DMSO and isopropyl alcohol were opened in a biological safety cabinet. A 15 ml centrifuge tube was taken, and 3 ml of DMSO and 7 ml of isopropyl alcohol were added to make a mixed solvent. The molecular weight of the compound of formula (I) is 678.22 g/mol. 40.69 mg of an original drug of the compound of formula (I) was weighed, and 4 ml of the mixed solvent was added. The mixture was mixed well by pipetting. […] The solution was diluted according to the required concentration when being used.

[5] = test system: ICR mice; test: Example 6: repeated gavage administration toxicity for 2 weeks; format: in vivo
From the text: The compound of formula (I) was gavagely administered continuously to ICR mice for 14 days, to evaluate the nature, degree, and time-effect relationship of the toxic reactions that the compound of formula (I) may cause, and to provide reference information for the subsequent research.
Preparation of the administration formulation of the test sample in each dosage group: The preparation of the test sample was the same as that in Example 5. When the test sample was used, a final volume mark was marked on a container, and a required amount of the test sample was weighed (weighing weight of the test sample=theoretical dosage/conversion factor) into a container. An appropriate amount of solvent was firstly added, and the mixture was stirred and mixed thoroughly, and sonicated if necessary. The solvent was further added to the final volume mark to dilute and mix evenly, to give a visually uniform formulation, which was verified by the methodology. […] The administration formulation of the test sample with a concentration range of 0.01 mg/mL to 60 mg/mL was stable within 8 days when being stored airtightly at 2° C. to 8
Route of Administration: Oral Gavage
Administered once a day; while maintaining the same administration period every day.
Administered continuously for 14 days
The dosage was calculated based on the latest animal body weight.
The administration formulation of the test sample was stirred at room temperature for at least 10 minutes, and suspended uniformly with visual inspection before the administration. The administration formulation of the test sample was required to be continually stirred during the administration.
Observation indicators: observation of general physical signs, detailed clinical observation, body weight, and food intake were included.

[6] = D21, DDP 5/7/7/7 mg/kg i.p. QW×4
[7] = D25, DDP 5/7/7/7 mg/kg i.p. QW×4
[8] = D28, DDP 5/7/7/7 mg/kg i.p. QW×4
[9] = D32, DDP 5/7/7/7 mg/kg i.p. QW×4
[10] = D35, DDP 5/7/7/7 mg/kg i.p. QW×4
[11] = D39, DDP 5/7/7/7 mg/kg i.p. QW×4
[12] = D42, DDP 5/7/7/7 mg/kg i.p. QW×4
[13] = D46, DDP 5/7/7/7 mg/kg i.p. QW×4
[14] = 100 mg/kg dosage group, surviving animals

Compound: N.N.[Cl][Pt][Cl] [DDP, cisplatin]
- Mean animal body weight ([1]; D18, DDP 4 mg/kg i.p. QW×4): 18.4 ± 0.4 g
- Mean animal body weight ([1]; D18, DDP 5/7/7/7 mg/kg i.p. QW×4): 18.5 ± 0.3 g
- Mean animal body weight ([1]; D21, DDP 4 mg/kg i.p. QW×4): 18.3 ± 0.5 g
- body weight loss rate ([1]; D21, DDP 4 mg/kg i.p. QW×4): (0.81%)
- Mean animal body weight [1, 6]: 18.4 ± 0.3 g
- body weight loss rate [1, 6]: (0.61%)
- Mean animal body weight ([1]; D25, DDP 4 mg/kg i.p. QW×4): 18.1 ± 0.3 g
- body weight loss rate ([1]; D25, DDP 4 mg/kg i.p. QW×4): (1.7%)
- Mean animal body weight [1, 7]: 18.5 ± 0.3 g
- body weight loss rate [1, 7]: (0.00%)
- Mean animal body weight ([1]; D28, DDP 4 mg/kg i.p. QW×4): 18.5 ± 0.3 g
- body weight loss rate ([1]; D28, DDP 4 mg/kg i.p. QW×4): (−0.14%)
- Mean animal body weight [1, 8]: 18.9 ± 0.3 g
- body weight loss rate [1, 8]: (−2.4%)
- Mean animal body weight ([1]; D32, DDP 4 mg/kg i.p. QW×4): 18.7 ± 0.3 g
- body weight loss rate ([1]; D32, DDP 4 mg/kg i.p. QW×4): (−1.4%)
- Mean animal body weight [1, 9]: 18.3 ± 0.4 g
- body weight loss rate [1, 9]: (1.3%)
- Mean animal body weight ([1]; D35, DDP 4 mg/kg i.p. QW×4): 19.3 ± 0.3 g
- body weight loss rate ([1]; D35, DDP 4 mg/kg i.p. QW×4): (−4.9%)
- Mean animal body weight [1, 10]: 19.2 ± 0.4 g
- body weight loss rate [1, 10]: (−4.0%)
- Mean animal body weight ([1]; D39, DDP 4 mg/kg i.p. QW×4): 19.3 ± 0.3 g
- body weight loss rate ([1]; D39, DDP 4 mg/kg i.p. QW×4): (−4.6%)
- Mean animal body weight [1, 11]: 18.0 ± 0.3 g
- body weight loss rate [1, 11]: (2.5%)
- Mean animal body weight ([1]; D42, DDP 4 mg/kg i.p. QW×4): 19.8 ± 0.5 g
- body weight loss rate ([1]; D42, DDP 4 mg/kg i.p. QW×4): (−7.7%)
- Mean animal body weight [1, 12]: 18.8 ± 0.4 g
- body weight loss rate [1, 12]: (−1.5%)
- Mean animal body weight ([1]; D46, DDP 4 mg/kg i.p. QW×4): 19.5 ± 0.5 g
- body weight loss rate ([1]; D46, DDP 4 mg/kg i.p. QW×4): (−5.6%)
- Mean animal body weight [1, 13]: 17.1 ± 0.5 g
- body weight loss rate [1, 13]: (7.4%)
- Animal body weight ([2]; D12): 18.6 ± 0.5 g
- Animal body weight ([2]; D16): 17.9 ± 0.3 g
- body weight loss rate ([2]; D16): 3.9%
- Animal body weight ([2]; D19): 18.0 ± 0.4 g
- body weight loss rate ([2]; D19): 3.3%
- Animal body weight ([2]; D23): 16.9 ± 0.5 g
- body weight loss rate ([2]; D23): 9.2%
- Animal body weight ([2]; D26): 17.9 ± 0.5 g
- body weight loss rate ([2]; D26): 3.4%
- Animal body weight ([2]; D30): 17.5 ± 0.3 g
- body weight loss rate ([2]; D30): 6.0%
- Animal body weight ([2]; D33): 18.6 ± 0.4 g
- body weight loss rate ([2]; D33): 0.090%
- Animal body weight ([2]; D37): 18.9 ± 0.4 g
- body weight loss rate ([2]; D37): −2.0%
- Animal body weight ([2]; D40): 19.2 ± 0.4 g
- body weight loss rate ([2]; D40): −3.1%
- Animal body weight ([2]; D44): 18.3 ± 0.3 g
- body weight loss rate ([2]; D44): 1.4%

Compound: COC1=C(OC)C(=O)C(CCCCCCCCCCOC(=O)Cc2c(C)n(C(=O)c3ccc(Cl)cc3)c3ccc(OC)cc23)=C(C)C1=O [compound of formula (I)]
- colony-forming ability [3]: decreased significantly
- solubility in organic solvents [4]: easily soluble
- abnormal reactions ([5]; 25 mg/kg dosage group): No abnormal reactions
- body weight ([5]; 25 mg/kg dosage group): increased normally
- animals found dead ([5]; 25 mg/kg dosage group, 20 animals per group, gavage once a day, 14 days): No animal was found dead
- abnormal reactions ([5]; 50 mg/kg dosage group): No abnormal reactions
- body weight ([5]; 50 mg/kg dosage group): increased normally
- animals found dead ([5]; 50 mg/kg dosage group, 20 animals per group, gavage once a day, 14 days): No animal was found dead
- abnormal reactions [5, 14]: No abnormal reactions
- body weight [5, 14]: increased normally
- animals found dead ([5]; 100 mg/kg dosage group, 20 animals per group, gavage once a day, 14 days): 3
- animals found dead ([5]; 300 mg/kg dosage group, 20 animals per group, gavage once a day, 14 days): 10
- animals found dead ([5]; 1000 mg/kg dosage group, 20 animals per group, gavage once a day): 13
- animals found dead ([5]; 1000 mg/kg/d dosage group, from D3 to D6, administration then stopped): 4
